Two compounds from patent US8178577B2, “Tricyclic derivatives as potent and selective histone deacetylase inhibitors” (Shenzhen Chipscreen Biosciences Ltd., priority 2008, dated 2012) can be followed below.

Assay type in all cases: cell-based
One experiment relates to HeLa. As to the kind of experiment: Cell proliferation (MTS), HeLa. The following applies: Homo sapiens, 72 hours. How it is done: (§1) Measurement of In Vivo Cell Proliferation:
(§2) Tumor cells were trypsinized and plated into 96-well plates at 3,000 per well and incubated in complete medium with 10% FBS for 24 hours. Compounds were added over a final concentration range of 100 μmol/L to 100 nmol/L in 0.1% DMSO and incubated for 72 hours in complete medium. The effects on proliferation were determined by addition of MTS reagent (Promega) according to the instruction, incubation for 2 hours at 37° C. in CO2 incubator, and record the absorbance at 490 nm using an ELISA plate reader.

The next experiment addresses T1, HDAC7 (Homo sapiens, UniProt Q8WUI4).
T1 construct: endogenous in cells; host or cells: HeLa
T1 sequence (Q8WUI4 1-952): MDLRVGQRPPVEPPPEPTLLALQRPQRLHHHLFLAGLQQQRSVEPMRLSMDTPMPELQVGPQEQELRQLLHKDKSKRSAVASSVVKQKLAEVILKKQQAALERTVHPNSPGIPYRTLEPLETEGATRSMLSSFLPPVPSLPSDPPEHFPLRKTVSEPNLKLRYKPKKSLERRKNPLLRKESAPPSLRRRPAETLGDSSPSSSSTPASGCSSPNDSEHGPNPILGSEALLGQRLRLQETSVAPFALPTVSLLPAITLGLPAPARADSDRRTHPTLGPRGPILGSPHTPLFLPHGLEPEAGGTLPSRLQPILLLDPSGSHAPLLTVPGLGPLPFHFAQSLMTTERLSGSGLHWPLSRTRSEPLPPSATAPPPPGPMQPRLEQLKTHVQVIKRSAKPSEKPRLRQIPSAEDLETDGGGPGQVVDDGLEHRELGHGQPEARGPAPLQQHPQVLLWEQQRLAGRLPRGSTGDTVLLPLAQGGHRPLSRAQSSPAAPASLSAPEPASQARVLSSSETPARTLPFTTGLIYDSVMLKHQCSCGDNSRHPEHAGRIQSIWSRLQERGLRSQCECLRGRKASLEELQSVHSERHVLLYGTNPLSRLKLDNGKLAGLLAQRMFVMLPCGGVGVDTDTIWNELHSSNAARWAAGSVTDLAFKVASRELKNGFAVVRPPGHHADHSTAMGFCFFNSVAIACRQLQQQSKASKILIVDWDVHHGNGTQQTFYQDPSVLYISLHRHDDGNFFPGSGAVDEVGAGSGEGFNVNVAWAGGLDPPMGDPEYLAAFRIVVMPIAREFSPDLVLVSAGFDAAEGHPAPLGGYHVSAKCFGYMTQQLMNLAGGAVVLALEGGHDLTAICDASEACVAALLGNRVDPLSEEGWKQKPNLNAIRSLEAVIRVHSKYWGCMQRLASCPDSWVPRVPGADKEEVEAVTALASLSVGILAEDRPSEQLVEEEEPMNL
As to the kind of experiment: Nur77 reporter gene assay in HeLa cells. The following applies: HeLa, 24 h, read-out: % of SAHA Response for HDAC7 at 10 μM (Nur77 reporter gene). The procedure:
HDAC subtype selectivity inhibition assay of tested compounds was carried out by several reporter gene assays experiments. Briefly, HeLa cells were seeded in 96-well plates the day before transfection to give a confluence of 50-80%. Cells were transfected with one of reporter gene plasmids containing a promoter sequences or response elements upstream of a luciferase gene construct using FuGene6 transfection reagent according to the manufacturer's instructions (Roche). The promoter or response elements including p21-promoter, gdf11-promoter, serum response element (SRE), MEF-binding element were fused upstream to the luciferase gene reporter construct. For normalizing the transfection efficiency, a GFP expression plasmid was cotransfected. Cells were allowed to express protein for 24 hours followed by addition of individual compounds or the vehicle (DMSO). 24 hours later the cells were harvested, and the luciferase assays were performed using the luciferase assay kit according to the manufacturer's instructions (Promega). To normalize the data from the luciferase assays, β-galactosidase activity from transfected cells was measured using a kit (Promega) as instructed by the manufacturer.
Background: In a reporter assay the amount or activity of a reporter protein is the signal.

In a further experiment the test system is HL60. As to the kind of experiment: Cell proliferation (MTS), HL60. As to conditions: Homo sapiens, HL-60, 72 hours. The procedure: as §1, §2
Experiment [1] concerns the target T2, (Homo sapiens, UniProt Q9UBN7).
T2 construct: endogenous in cells; host or cells: A549
T2 sequence (Q9UBN7 1-1215): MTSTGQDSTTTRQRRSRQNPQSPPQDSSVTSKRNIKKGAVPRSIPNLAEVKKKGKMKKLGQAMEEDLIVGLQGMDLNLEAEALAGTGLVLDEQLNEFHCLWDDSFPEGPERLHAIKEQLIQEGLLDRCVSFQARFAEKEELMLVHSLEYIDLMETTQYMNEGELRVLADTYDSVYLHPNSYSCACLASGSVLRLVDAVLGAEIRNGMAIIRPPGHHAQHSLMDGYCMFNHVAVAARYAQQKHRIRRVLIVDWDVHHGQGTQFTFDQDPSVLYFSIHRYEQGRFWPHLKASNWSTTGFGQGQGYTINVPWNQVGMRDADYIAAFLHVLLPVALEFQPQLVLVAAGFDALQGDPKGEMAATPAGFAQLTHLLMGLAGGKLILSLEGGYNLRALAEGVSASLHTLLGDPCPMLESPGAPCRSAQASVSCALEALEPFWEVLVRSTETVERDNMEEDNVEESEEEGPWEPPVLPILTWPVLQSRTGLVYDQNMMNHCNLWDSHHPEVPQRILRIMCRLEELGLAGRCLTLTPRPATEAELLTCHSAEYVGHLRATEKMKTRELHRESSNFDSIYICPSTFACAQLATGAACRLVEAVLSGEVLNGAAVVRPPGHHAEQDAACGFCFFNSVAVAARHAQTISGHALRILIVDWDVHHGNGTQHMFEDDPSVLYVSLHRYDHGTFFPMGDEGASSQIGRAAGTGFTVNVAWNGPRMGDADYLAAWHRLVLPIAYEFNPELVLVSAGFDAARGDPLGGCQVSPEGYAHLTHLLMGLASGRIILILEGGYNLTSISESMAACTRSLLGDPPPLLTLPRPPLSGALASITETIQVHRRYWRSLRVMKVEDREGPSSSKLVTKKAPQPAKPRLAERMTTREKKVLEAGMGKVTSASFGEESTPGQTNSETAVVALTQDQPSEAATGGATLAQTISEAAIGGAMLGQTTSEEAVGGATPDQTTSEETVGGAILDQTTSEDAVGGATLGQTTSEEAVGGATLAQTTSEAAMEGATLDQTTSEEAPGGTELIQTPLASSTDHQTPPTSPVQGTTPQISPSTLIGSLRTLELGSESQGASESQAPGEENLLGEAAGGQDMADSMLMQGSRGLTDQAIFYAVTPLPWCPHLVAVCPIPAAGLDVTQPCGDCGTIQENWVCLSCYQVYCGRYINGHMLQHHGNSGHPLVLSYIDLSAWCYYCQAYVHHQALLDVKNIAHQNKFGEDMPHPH
As to the kind of experiment: Cytoblot assay of acetylation of α-tubulin in A549 cells. The following applies: 24 hours. How it is done:
This assay is used to measure in vivo inhibition of HDAC6 in a cytoblot assay.
• 1. […] Compounds were added and incubated for 24 hours at 37° C. • 3.

Turning to `Nc1cc(F)ccc1NC(=O)CCCCCNC(=O)C=C1c2ccccc2-c2ccccc21` [Example 12, 6-(2-(9H-fluoren-9-ylidene)acetamido)-N-(2-amino-4-fluorophenyl)hexanamide], the GI50 (as a rule, the concentration giving 50% growth inhibition) in the experiment with HeLa was 22.9 µM; in the experiment with HL60 it was 2.29 µM. Moreover, on HDAC7, the activation at 10 µM came out at 38%. For the same compound, the “Fold of tubulin acetylation (HDAC7 at 10 μM)” value in experiment [1] worked out at 0.79 Fold.

For `Nc1ccccc1NC(=O)CCCCCNC(=O)C=C1c2ccccc2-c2ccccc21` [Example 13, 6-(2-(9H-fluoren-9-ylidene)acetamido)-N-(2-aminophenyl)hexanamide], the figures for the GI50 with HeLa and with HL60 were 8.32 µM and 1.35 µM, respectively. Besides, the activation at 10 µM at HDAC7 stood at 66%. Also, in experiment [1], the “Fold of tubulin acetylation (HDAC7 at 10 μM)” value is 0.74 Fold.
